Laboratory results from US20110077215A1, “DNA Methylation As A Target For Diagnosis And Treatment Of Chronic Lymphocytic Leukema (CLL)” (THE UNIVERSITY OF UTAH RESEARCH FOUNDATION, priority 2005, published 2011).
“Also recorded” adds a separate entry of the source. Marks after values point to notes of the source that are not given here.

Assays:
[1] = test system: HT-29 cells; test: DNA microarray analysis of gene re-expression after Cladribine; format: cell-based; details: HT-29 colon cancer cell line
Method: Lymphocytes are inclubated with 0-3 μM Cladribine.
Total RNA is isolated with RNeasy mini kits (Qiagen) from samples treated with Cladribine or vehicle. Approximately 1 μg may be amplified using Message Amp kits (Ambion). In replicate experiments, DNA from the vehicle or treated samples may be variably labeled with Cy-3 and Cy-5 dye and two microarray experiments may be performed for each dye-orientation. The utilized microarray slides consist of 9600 genes from the Research Genetics 40k sequence-verified human clone set. Each sample is deposited in duplicate, with a Lucidea (Amersham) robotic spotter. After hybridization, the microarray slides are scanned with an Axon scanner, and data quantified using Imagene and GeneSight software. The local background is subtracted. Data points with no signal, high background, or spot asymmetry are eliminated. Genes with low expression and low signal intensity are adjusted to a minimal raw value of 5 to avoid unwarranted mathematical distortions due division by decimals <<1. After calculating the ratio of the Cy5/Cy3 fluorescence signal intensity for each gene, data is normalized relative to the mean intensity from all genes. […] Data is analyzed with Spotfire software for statistical and hierarchical cluster analysis using an unweighted pair-group method with arithmetic mean with a Euclidean distance metric.

[2] = test system: global DNA methylation; test: Global DNA methylation (HPLC of digested genomic DNA) before and after low-dose cladribine; format: in vivo, human
[3] = test system: patients with chronic lymphocytic leukemia; test: Phase I dose-escalation of low-dose subcutaneous cladribine: clinical response and toxicity; format: in vivo, human
Method: Additional inclusion criteria included: KPS>70%, absolute neutrophil count >1500/μl, platelet count >100,000/μl, creatinine <2.0 mg/dl, normal liver function tests, no evidence of active infections on chest x-ray or urinalysis, and no concurrent chemotherapy or radiation therapy within 4 weeks of registration. Each patient signed an informed consent form approved by the University of Utah institutional review board, Clinical Cancer Investigation Committee, and Salt Lake City Veterans Administration Medical Center (SLC VAMC) Research and Development office.
The study accrued three patients from the VAMC and two patients from the Huntsman Cancer Institute at the University of Utah from January to May 2005. The patients were given three consecutive subcutaneous injections of cladribine (Leustatin) once every 28-32 days, starting at a dose of 0.05 mg per kg per day. The primary endpoint of the study was to find the dose of cladribine which caused a 20% decrease in global DNA methylation. Each patient served as their own control, and was dose-escalated every 28-32 days by 0.01 mg per kg per day if the primary endpoint was not met. Patients were given prophylactic doses of trimethoprim/sulfamethoxazole for the prevention of pneumocystis carinii. Patients allergic to trimethoprim/sulfamethoxazole were prescribed prophylactic doses of dapsone. No clinical endpoints were written into the study initially. […] A clinical response was defined by the NCI-sponsored working group for CLL. (See Cheson et al., BLOOD (1996) 87:4990-97). A patient was considered to have completed the study when the total white blood count was less than 10,000 cells/μl after two consecutive weekly blood counts. The entire study was conducted at the University of Utah General Clinical Research Center (GCRC). Leustatin was provided to the patients by Tibotec Therapeutics, a division of Johnson and Johnson.
Five patients with CLL were given subcutaneous injections of cladribine (Leustatin, provided by Tibotec Therapeutics) on three consecutive days at 28-32 day intervals, starting at a dose of 0.05 mg/kg/day, approximately ⅓ of the recommended therapeutic dose. {Juliusson, 1993 #10; Juliusson, 1996 #11} Five patients with a confirmed diagnosis of CLL (Table 3) participated in an Institutional Review Board-approved protocol between January and May 2005 after informed consent was obtained. […] Inclusion criteria included: KPS>70%, absolute neutrophil count >1500/μL, platelet count >100,000/μL, creatinine <2.0 mg/dL, normal liver function tests, no evidence of active infections, and no concurrent chemotherapy or radiation therapy within 4 weeks of registration.

[4] = test system: histone 3 (H3) methylation in CLL cells; test: Histone methylation immunofluorescence of CLL cells after low-dose cladribine; format: in vivo, human
Method: The DNA and the mononuclear cells from the buffy coat were stored from the majority of patient samples. DNA was used for global DNA methylation studies and the mononuclear cells from the buffy coat were used to measure changes in H3 methylation by immunofluorescence before and after treatment.
3×10^4 CLL cells were mounted onto a slide by cytospin at 800 rpm for 3 minutes. They were then fixed in 95% ethanol/5% acetic acid for 10 minutes, followed by incubation in 0.25 M sodium butyrate for 24 hours at room temperature. The slides were stained by the Ventana automated immunostainer at 40° C. The slides were first stained with the primary antibody (1:50) for 32 minutes, followed by staining with the secondary antibody (sheep or rabbit IgG-FITC) (1:200) for 32 minutes. Slides were counterstained with DAPI (1:100) for 1 minute and hematoxylin (Ventana Medical Systems) for 4 minutes. Fluorescent detection was performed with the IView DAB detection kit (Ventana Medical Systems). Intensity of fluorescence was quantitated by a wide field fluorescent microscope and quantified by the Openlab modular imaging software. Signal to noise was optimized by the software.
A histone methylation assay that uses immunofluorescence to assess for histone methylation patterns after treatment with low-doses of cladribine was developed. […] These states are associated with transcription silencing. (See Jaskelioff et al., Nat. Cell. Biol. (2003) 5:395-99). In FIG. 4, an average of 100 cells was quantitated in the fluorescence intensity at each time point. The asterisk corresponds to days of treatment with cladribine. The error bars at each time point refer to the range of antibody staining in all cells. […] Multiparametric flow cytometry may be utilized to analyze further which subset of CLL cells respond to low doses of drugs.

[5] = test system: miRNA expression in patients with CLL; test: miRNA expression profile (Taqman real-time PCR) before and after DNA methylation inhibitor; format: in vivo, human; details: for Changes in bcl-2, p53, mir-15, mir-16: after treatment; for miR-34a and miR-195 expression: patients with decreased lymphocytosis following drug treatment; for Expression of mir-17-3p, mir-21, mir-29a/b/c, mir-30e, mir-104, mir-126, mir-128a, mir-130a, mir-141, mir-142-3p, mir-148a, mir-151, mir-199a, mir-199a*, mir-301: real-time PCR, Early Access Human Panel; for microRNA expression after treatment: six patients on 5-azacytidine, one patient on 2-chloro-2-deoxyadenosine
Method: The DNA MI was measured in each patient before and after treatment with low dose cladribine.
(§1) Patients with CLL not in immediate need for cytoreductive therapy are enrolled on a dose-escalation study of low-dose 5-azacytidine (Vidaza, provided by the Pharmion Corporation.) Patients must have a KPS greater than 70%, white blood cell count greater than 20,000/μL hemoglobin >8 g/dL, platelet count >50,000/μL, normal liver, and renal functions. The study was carried out in 2 stages using a modification of the design proposed by Storer. {Storer, 1989 #16} In the first stage, patients were enrolled as single patient cohorts until either at least a 20% DNA MI inhibition or a greater than grade II toxicity. This allowed us to get closer to the target biologically effective dose before enrolling three patient cohorts. The global DNA MI and the miRNA expression profile of 6 patients before and after 5-azacytidine in the patients in the first stage of the study protocol was determined. Patients received 10-70 mg/m^2/day on days 1-3 and days 8-10.
Total RNA is extracted with Trizol, as previously described. {O'Donnell, 2005 #182} MiRNA expression was determined using the Applied Biosystems Taqman MicroRNA Assays Human Panel Early Access Kit. 10 ηg of RNA is used for each sample. cDNA is made using a looped RT primer provided by the kit. A 1 to 5 dilution of the cDNA is used for each sample and used for quantitative PCR on the ABI 7900HT Fast Real-Time PCR System. MiRNA-specific forward and reverse primers were provided in plates A and B. MiR-16 and let-7a served as positive controls while let-2 served as a negative control for human samples. Each miRNA were performed in quadriplicates. The miRNA expression was determined for CD5^+B-lymphocytes obtained from pediatric tonsils and from B-lymphocytes of 5 healthy controls.
Two different DNA methylation inhibitors were studied with respect to re-expression of microRNA: a DNA methyltransferase enzyme inhibitor, 5-azacytidine, and a methyl substrate inhibitor, 2-chloro-2-deoxyadenosine. […] Mir-17-3p and mir-21 have anti-apoptotic properties.

[6] = test system: global DNA methylation; test: Global DNA MI (HPLC) before and after low-dose 5-azacytidine; format: in vivo, human
[7] = test system: patients with CLL; test: Dose-escalation study of low-dose 5-azacytidine: toxicity; format: in vivo, human
Method: as §1

[8] = test system: global DNA methylation; test: Global methylation analysis after continuous infusion Decitabine; format: in vivo, human; details: patients treated with Decitabine
Method: All patients were treated with continuous infusion Decitabine given intravenously in an inpatient setting. […] The method for assessing DNA methylation was consistent and reproducible (Samlowski et al. Manuscript submitted to JCO).

[9] = low-dose cladribine s.c., 5 CLL patients
[10] = low-dose cladribine, 5 patients
[11] = CLL cells after low dose cladribine

Nc1nc(Cl)nc2c1ncn2[C@H]1C[C@H](O)[C@@H](CO)O1 [cladribine, 2-chlorodeoxyadenosine]
Re-expression of silenced genes (DNA microarray) [1]: re-expression of silenced genes in HT-29 cells | Global decrease of DNA methylation after treatment ([2]; 6 out of 7 patients, pooled with the six 5-azacytidine patients): 8% | Effect on global DNA methylation ([2]; low-dose cladribine): modest response; also recorded: not an effective DNA methylation inhibitor; also recorded: minimal inhibition in global DNA methylation | Hemoglobin change over the course of the study ([3]; Patient 1): did not exhibit a decrease in hemoglobin | Toxicities overall ([3]; low-dose cladribine 0.05-0.09 mg per kg per day): without toxicities | Clinical response (NCI-sponsored working group) ([3]; low-dose cladribine 0.05-0.09 mg per kg per day, 3 days every 28 days): induce a clinical response in some patients; also recorded: partial response; also recorded: Three out of the five | CR (number of patients) [3, 9]: 0 | PD (number of patients) [3, 9]: 1 | PR duration [3, 9]: 5 months | Hematologic toxicities Grade III/IV (number of patients) [3, 10]: Grade III/IV (0) | Non-hematologic toxicities Grade I/II (number of patients) [3, 10]: Grade I/II (2)* | Non-hematologic toxicities Grade III/IV (number of patients) [3, 10]: Grade III/IV (0) | Non-hematologic toxicities observed (adverse events) ([3]; low-dose cladribine, events in patient 4): Two grade II non-hematologic toxicities; also recorded: grade II lymphadenitis; also recorded: second grade II infection, a community-acquired pneumonia | Decrease in lymphocyte count by 50% (time) ([3]; mean of the 5 patients on trial, range 8-67 days): 48 days (8-67 days)** | Hemoglobin ([3]; mean of the 5 patients on trial, range 12.1-16 g/dL): 14.6 g/dL (12.1-16 g/dL)** | Platelet count ([3]; mean of the 5 patients on trial, range 133-438k/μL): 224k/μL (133-438k/μL)** | Reduction in circulating leukemia cells ([3]; patient 1, dose escalation): did not demonstrate a reduction in circulating leukemia cells until the third dose escalation of 0.07 mg per kg per day | Outcome of patient 3 (previously treated) ([3]; patient 3, higher baseline global DNA methylation): progressive disease; also recorded: progression with a gradually increasing white blood count | White blood cell count change ([3]; patient 5, first dose 0.05 mg per kg per day): dramatic reduction in white blood cell count | Reduction in white blood cell count ([3]; patients 1, 2, 4 and 5 after low dose cladribine): ≥ 50% | H3 dimethylated lysine 9 immunofluorescence [4, 11]: Little change | H3 monomethylated lysine 4 immunofluorescence [4, 11]: decreased to levels akin to signal intensity obtained from total histone 3; also recorded: decrease transiently | H3 monomethylated lysine 9 immunofluorescence [4, 11]: increase and rise | H3 phospho-serine 10 immunofluorescence [4, 11]: decrease and rise | H3 trimethylated lysine 9 immunofluorescence [4, 11]: increase in trimethylated lysine 9 approximately 1 week later and increase and rise | Total histone 3 immunofluorescence ([4]; patient 4, 0.05 mg per kg per day cladribine): minimal changes | Changes in bcl-2, p53, mir-15, mir-16 [5]: No changes | miR-34a and miR-195 expression [5]: upregulated | Expression of mir-17-3p, mir-21, mir-29a/b/c, mir-30e, mir-104, mir-126, mir-128a, mir-130a, mir-141, mir-142-3p, mir-148a, mir-151, mir-199a, mir-199a*, mir-301 [5]: consistent microRNA upregulation | microRNA expression after treatment [5]: Increased microRNA expression

Nc1ncn([C@@H]2O[C@H](CO)[C@@H](O)[C@H]2O)c(=O)n1 [5-azacytidine]
Global decrease of DNA methylation after treatment ([6]; 6 out of 7 patients, pooled with the 2-chloro-2-deoxyadenosine patient): 8% | Decrease in global DNA MI ([6]; four out of the 6 patients, low-dose 5-azacytidine): ~10% | Change in global DNA MI ([6]; patients 2 and 4, low-dose 5-azacytidine): No change | Toxicity ([7]; 5th patient, 60 mg/m^2/day): grade II thrombocytopenia and anemia | Toxicity ([7]; the other patients, 10-70 mg/m^2/day): No other toxicities were observed | Changes in bcl-2, p53, mir-15, mir-16 [5]: No changes | miR-34a and miR-195 expression [5]: upregulated | Expression of mir-17-3p, mir-21, mir-29a/b/c, mir-30e, mir-104, mir-126, mir-128a, mir-130a, mir-141, mir-142-3p, mir-148a, mir-151, mir-199a, mir-199a*, mir-301 [5]: consistent microRNA upregulation | microRNA expression after treatment [5]: Increased microRNA expression

Nc1ncn([C@H]2C[C@H](O)[C@@H](CO)O2)c(=O)n1 [Decitabine, 5-aza-2-deoxycytidine]
Decrease in global DNA methylation level achievable [8]: ≥ 20%
